Several values for one entry are separate records, joined by “and”; a condition that tells them apart may be missing. Identical values can stand only once.
Experiments:
[1] = after oral administration; cited from earlier work
[2] = Individual dose titration of sublingual nitroglycerin, side effects (Examples 1 and 2); type: in vivo, human
[3] = Phase IIa forced-titration trial of nitroglycerin sublingual powder in PAOD patients, interim analysis of headache (Example 3); type: in vivo, human; conditions: for Headache days (%): of study days corrected by drop-out days
Protocol: The patients are advised to take the dosages in the morning, noon and evening so that the short acting NO donor is administered in an intermittent manner.
Participants report adverse effects during the study with headache being one of the adverse effects.
The study has not yet been finalized but an interim analysis regarding headache as an adverse effect of the study drug has been performed (FIG. 2, Table 1-3).
At the time point of the interim analysis the study was still blinded, so with regard to patients' reported adverse event headache it could not be distinguished between the frequency of headache in the verum and the placebo group.
As the titration of the study medication takes place in the first 3 weeks, the analysis is focused on reported headache in the first three weeks plus in week 4 to also monitor possible late or ongoing side effects.
The analysis includes 35 participants so far which are at different time points of the study protocol. In FIG. 1 the individual headache days of the 35 participants are shown. Some participants have already reached the end of the 12-week treatment period and are in the follow-up period, some participants are still on treatment, but all participants […] have surpassed the titration phase and are on the final dosage of 0.7 mg GTN.

[4] = total of 2453 study days so far
[5] = weeks 1-4, of 927 corrected study days

O=[N+]([O-])O[C@@H]1CO[C@H]2[C@@H]1OC[C@@H]2O [isosorbide mononitrate]
Halftime [1]: around 5 hours

O=[N+]([O-])OCC(CO[N+](=O)[O-])O[N+](=O)[O-] [nitroglycerin]
Side effects ([2]; Example 1, final dosage 0.7 mg after weekly increase 0.15-0.3-0.5-0.7 mg): without side effects
Side effects ([2]; Example 1, person, approximately 0.15 mg GTN TID sublingual powder): no headache or other known GTN side effects
Side effects ([2]; Example 1, sublingual nitroglycerin in a therapeutic dose, no titration): severe headache
Side effects ([2]; Example 2, 0.15 mg TID): no nausea or headache or other known GTN side effects
Side effects ([2]; Example 2, final dosage 0.4 mg TID after weekly increase 0.15-0.3-0.4 mg): without side effects
Side effects ([2]; Example 2, person, initial dose 0.4 mg sublingual, no titration): nausea and mild headache
Remaining share of participant headache days when the 3 participants are excluded ([3]; 3 participants with possible chronic headache or migraine excluded): 15%
Possibly headache related drop-outs ([3]; during the titration in the first 4 weeks): one
Headache days of the 3 participants with possible chronic headache or migraine background ([3]; first 4 weeks): 82 days
Participants in whom the headache lasted more than a week ([3]; first 4 weeks): 5 participants
Share of headache days due to the 3 participants with possible chronic headache or migraine background ([3]; first 4 weeks): 65%
Participants with headache on a single day ([3]; first 4 weeks, not during the first three days, of 35): 6 participants
Participants with headache that lasted more than one day ([3]; first 4 weeks, of 35): 6 participants
Additional participants dropped out due to headache ([3]; further course of the therapy): 2 participants
Overall headache frequency in the present study ([3]; interim analysis, blinded): below 30%
Headache days recorded for the 3 participants with continuous headache ([3]; overall study): 209 days and 212 days
Share of total headache days due to the 3 participants with continuous headache ([3]; overall study): 85%
Participants that have headache during the first days of treatment ([3]; starting dose 0.3 mg GTN): 5 participants
Percentage of participants that have headache during the first days of treatment ([3]; starting dose 0.3 mg GTN): 14.3%
Participant headache days recorded so far (overall study) [3, 4]: 245 days and 251 days
Percentage of headache days of total study days so far [3, 4]: 10%
Participants with possible chronic headache or migraine history ([3]; week 1): 3
Headache corrected by participants with possible chronic headache or migraine history (%) ([3]; week 1, 0.3 mg GTN): 20%
Participant headache days corrected by participants with possible chronic headache or migraine history (%) ([3]; week 1, 0.3 mg GTN): 7.8%
Headache (%) of participants ([3]; week 1, 0.3 mg GTN, blinded): 28.6%
Headache days (%) ([3]; week 1, 0.3 mg GTN): 15.5%
Participants with possible chronic headache or migraine history ([3]; week 2): 3
Headache corrected by participants with possible chronic headache or migraine history (%) ([3]; week 2, 0.5 mg GTN): 11.4%
Participant headache days corrected by participants with possible chronic headache or migraine history (%) ([3]; week 2, 0.5 mg GTN): 4.2%
Headache (%) of participants ([3]; week 2, 0.5 mg GTN, blinded): 20%
Headache (%) of participants ([3]; week 2, 0.5 mg GTN, blinded, listed as GTN): 20.0%
Headache days (%) ([3]; week 2, 0.5 mg GTN): 13.0%
Change of headache frequency as a result of the increased dosage ([3]; week 2, 3 or 4 versus week 1): did not monitor an increased headache frequency
Participants with possible chronic headache or migraine history ([3]; week 3): 3
Headache corrected by participants with possible chronic headache or migraine history (%) ([3]; week 3, 0.7 mg GTN): 5.7%
Participant headache days corrected by participants with possible chronic headache or migraine history (%) ([3]; week 3, 0.7 mg GTN): 3.1%
Headache (%) of participants ([3]; week 3, 0.7 mg GTN, blinded): 14.3%
Headache days (%) ([3]; week 3, 0.7 mg GTN): 12.3%
Participants with possible chronic headache or migraine history ([3]; week 4): 3
Headache corrected by participants with possible chronic headache or migraine history (%) ([3]; week 4, 0.7 mg GTN): 0%
Participant headache days corrected by participants with possible chronic headache or migraine history (%) ([3]; week 4, 0.7 mg GTN): 0%
Headache (%) of participants ([3]; week 4, 0.7 mg GTN, blinded): 8.6%
Headache days (%) ([3]; week 4, 0.7 mg GTN): 9.7%
Headache days during the first 4 weeks [3, 5]: 118 days and 127 days
Overall percentage of headache days during the first 4 weeks [3, 5]: 12.7%

Source: US20200276145A1, “REDUCING SIDE EFFECTS OF SHORT ACTING NO DONORS” (G. POHL-BOSKAMP GMBH & CO. KG, priority 2016, published 2020)
